Measured values reported in publication PMC11793105, “A kalihinol analog disrupts apicoplast function and vesicular trafficking in P. falciparum malaria” (Science (New York, N.Y.), 2024).

Key:
[1] = tested on: P. falciparum cultures; assay: Exponential killing rate at IC80; format: cell-based, Plasmodium falciparum; settings: triplicate
[2] = tested on: P. falciparum 3D7 parasites; assay: Isopentenyl pyrophosphate (IPP) rescue assay; format: cell-based, Plasmodium falciparum; settings: drug at IC80 for one IEC before IPP (200 μM)
From the text: Fig. 2. […] Nuclei are stained with 4’,6-diamidino-2-phenylindole (DAPI; blue). […] (B) Dose-dependent interactions between MED6-189 (blue) and various antimalarials with known mechanisms of action (red). […] The regression line represents a nonlinear regression (variable slope with four parameters), with significant differences considered if P < 0.05. […] Isobologram curves are expected to be parallel to the diagonal for additive drug pairs, concave for synergistic drug pairs, and convex for antagonistic drug pairs. […] The analysis was performed using a two-way ANOVA, n = 3, with P < 0.05 significance.
IPP is a product of the MEP/DOXP pathway, and its supplementation reduces susceptibility to MEP inhibitors. […] Parasites were drugged at 80% inhibitory concentrations (IC80) for one IEC before IPP (200 μM) supplementation.

With `O=CN(O)CCCP(=O)(O)O` [fosmidomycin, reference compound] the “Exponential killing rate k = (1/t)* log10(N0/Nt)” value ([1]; at IC80, 48 HPS) was 0.007019, the “Exponential killing rate k = (1/t)* log10(N0/Nt)” value ([1]; at IC80, 72 HPS) was 0.01081 and the “Exponential killing rate k = (1/t)* log10(N0/Nt)” value ([1]; at IC80, 100 HPS) was 0.008797. The “rescue of parasites by IPP supplementation” value [2] was “survived the second IEC and initiated a third cycle”.
